According to US20090076009A1, “THIAZOLE DERIVATIVES AND THEIR USE AS ANTI-TUMOUR AGENTS” (priority 2006, published 2009):

What was measured:
[1] = test system: phosphorylation of Serine 473 in Akt in MDA-MB-468 human breast adenocarcinoma cell line; assay: In Vitro Phospho-Ser473 Akt Assay; format: cell-based; conditions: Test (c), MDA-MB-468 cells, read-out: IC50, inhibition of phosphorylation of Serine 473 in Akt
Protocol: (c) In Vitro Phospho-Ser473 Akt Assay
This assay determines the ability of test compounds to inhibit phosphorylation of Serine 473 in Akt as assessed using Acumen Explorer technology (TTP LabTech Limited, Royston, Herts, SG8 6EE, UK), a plate reader that can be used to rapidly quantitate features of images generated by laser-scanning.
A MDA-MB-468 human breast adenocarcinoma cell line (LGC Promochem, Teddington, Middlesex, UK, Catalogue No. HTB-132) was routinely maintained at 37° C. with 5% CO2 up to a confluency of 70-90% in DMEM containing 10% FCS and 1% L-glutamine.
For the assay, the cells were detached from the culture flask using ‘Accutase’ (Innovative Cell Technologies Inc., San Diego, Calif., USA; Catalogue No. AT104) using standard tissue culture methods and resuspended in media to give 5.5×10^4 cells per ml. Aliquots (90 μl) were seeded into each of the inner 60 wells of a black ‘Costar’ 96-well plate (Corning Inc., NY, USA; Catalogue No. 3904) to give a density of 5000 cells per well. Aliquots (90 μl) of culture media were placed in the outer wells to prevent edge effects. [An alternative cell handling procedure involved the maintenance of the cells in a ‘SelecT’ robotic device (The Automation Partnership, Royston, Herts SG8 5WY, UK). Cells were resuspended in media to give 5×10^4 cells per ml. Aliquots (100 μl) were seeded into the wells of a black ‘Costar’ 96-well plate.] […]

[2] = molecular target: T1, p110α Type Ia human PI3K (Homo sapiens, UniProt P42336); assay: In Vitro PI3K Enzyme Assay (AlphaScreen); format: biochemical; conditions: Test (a); read-out: IC50 versus p110α Type Ia human PI3K
T1 construct: full length DNA of each of the p110α, p110β and p110δ Type Ia human PI3K p110 isoforms; 6-His; made in house; Grp1 PH domain in E. coli
T1 sequence (P27986 whole entry, the tested form may be a part, canonical isoform): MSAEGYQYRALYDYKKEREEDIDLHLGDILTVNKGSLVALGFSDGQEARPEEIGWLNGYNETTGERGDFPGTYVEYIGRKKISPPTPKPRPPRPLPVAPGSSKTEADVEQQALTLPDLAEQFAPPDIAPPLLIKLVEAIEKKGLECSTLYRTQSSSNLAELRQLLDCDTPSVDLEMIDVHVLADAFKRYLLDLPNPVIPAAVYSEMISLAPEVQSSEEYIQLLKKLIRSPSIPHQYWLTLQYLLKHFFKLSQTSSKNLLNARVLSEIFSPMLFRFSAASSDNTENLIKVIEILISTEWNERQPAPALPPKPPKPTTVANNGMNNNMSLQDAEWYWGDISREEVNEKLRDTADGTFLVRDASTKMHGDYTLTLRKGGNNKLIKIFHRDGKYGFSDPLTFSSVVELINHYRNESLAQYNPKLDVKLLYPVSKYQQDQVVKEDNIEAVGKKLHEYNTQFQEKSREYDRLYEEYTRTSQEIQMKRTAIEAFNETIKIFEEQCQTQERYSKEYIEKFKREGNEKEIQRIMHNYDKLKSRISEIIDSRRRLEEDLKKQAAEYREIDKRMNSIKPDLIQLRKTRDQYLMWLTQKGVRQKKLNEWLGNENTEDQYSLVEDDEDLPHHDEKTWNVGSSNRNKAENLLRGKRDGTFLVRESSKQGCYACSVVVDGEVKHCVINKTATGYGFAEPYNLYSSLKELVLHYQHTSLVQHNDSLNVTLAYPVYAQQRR
T1 sequence (P42336 whole entry, the tested form may be a part, canonical isoform): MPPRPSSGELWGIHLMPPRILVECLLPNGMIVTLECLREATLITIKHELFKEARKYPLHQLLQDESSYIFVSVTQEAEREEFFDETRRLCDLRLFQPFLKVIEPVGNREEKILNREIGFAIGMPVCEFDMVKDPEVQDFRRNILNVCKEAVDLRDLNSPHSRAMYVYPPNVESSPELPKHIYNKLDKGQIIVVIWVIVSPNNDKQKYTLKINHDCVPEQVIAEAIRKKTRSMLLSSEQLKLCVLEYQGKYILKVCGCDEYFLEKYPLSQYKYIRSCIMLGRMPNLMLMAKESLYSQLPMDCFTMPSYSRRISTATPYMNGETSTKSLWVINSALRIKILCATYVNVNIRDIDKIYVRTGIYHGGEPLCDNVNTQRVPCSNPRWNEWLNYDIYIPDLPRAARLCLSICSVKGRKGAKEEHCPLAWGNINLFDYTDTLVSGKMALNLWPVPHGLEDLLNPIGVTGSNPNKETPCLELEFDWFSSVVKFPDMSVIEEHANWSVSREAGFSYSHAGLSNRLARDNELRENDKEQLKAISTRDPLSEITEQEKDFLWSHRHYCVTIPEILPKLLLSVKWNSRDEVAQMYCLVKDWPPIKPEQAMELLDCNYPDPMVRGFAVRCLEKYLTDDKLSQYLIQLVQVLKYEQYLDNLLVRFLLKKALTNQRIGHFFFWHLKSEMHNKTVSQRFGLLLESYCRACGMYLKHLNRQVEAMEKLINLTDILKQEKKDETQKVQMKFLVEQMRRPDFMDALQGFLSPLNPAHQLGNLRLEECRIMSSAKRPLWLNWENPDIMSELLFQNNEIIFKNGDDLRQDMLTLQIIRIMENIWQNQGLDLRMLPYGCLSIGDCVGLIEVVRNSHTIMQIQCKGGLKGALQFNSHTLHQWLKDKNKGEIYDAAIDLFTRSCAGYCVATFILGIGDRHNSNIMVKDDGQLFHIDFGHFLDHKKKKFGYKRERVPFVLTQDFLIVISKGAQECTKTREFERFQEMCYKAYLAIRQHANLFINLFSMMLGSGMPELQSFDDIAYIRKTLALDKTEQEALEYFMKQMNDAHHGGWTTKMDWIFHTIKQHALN
Description: (a) In Vitro PI3K Enzyme Assay
The assay used AlphaScreen technology (Gray et al., Analytical Biochemistry, 2003, 313: 234-245) to determine the ability of test compounds to inhibit phosphorylation by recombinant Type I PI3K enzymes of the lipid PI(4,5)P2.
DNA fragments encoding human PI3K catalytic and regulatory subunits were isolated from cDNA libraries using standard molecular biology and PCR cloning techniques. The selected DNA fragments were used to generate baculovirus expression vectors. In particular, full length DNA of each of the p110α, p110β and p110δ Type Ia human PI3K p110 isoforms (EMBL Accession Nos. HSU79143, S67334, Y10055 for p110α, p110β and p110δ respectively) were sub-cloned into a pDEST10 vector (Invitrogen Limited, Fountain Drive, Paisley, UK). The vector is a Gateway-adapted version of Fastbac1 containing a 6-His epitope tag. […]
Each reaction was stopped by the addition of 10 μl of a mixture of EDTA (100 mM), bovine serum albumin (BSA, 0.045%) and Tris-HCl pH7.6 buffer (40 mM). […] The resultant signals arising from laser light excitation at 680 nm were read using a Packard AlphaQuest instrument. […]

[3] = molecular target: mTOR PI kinase-related kinase (Homo sapiens, UniProt P42345); assay: In Vitro mTOR PI kinase-related Kinase Assay (AlphaScreen); format: biochemical; conditions: Test (b); read-out: IC50 versus mTOR PI kinase-related kinase
mTOR PI kinase-related kinase, sequence (P42345 1362-2549): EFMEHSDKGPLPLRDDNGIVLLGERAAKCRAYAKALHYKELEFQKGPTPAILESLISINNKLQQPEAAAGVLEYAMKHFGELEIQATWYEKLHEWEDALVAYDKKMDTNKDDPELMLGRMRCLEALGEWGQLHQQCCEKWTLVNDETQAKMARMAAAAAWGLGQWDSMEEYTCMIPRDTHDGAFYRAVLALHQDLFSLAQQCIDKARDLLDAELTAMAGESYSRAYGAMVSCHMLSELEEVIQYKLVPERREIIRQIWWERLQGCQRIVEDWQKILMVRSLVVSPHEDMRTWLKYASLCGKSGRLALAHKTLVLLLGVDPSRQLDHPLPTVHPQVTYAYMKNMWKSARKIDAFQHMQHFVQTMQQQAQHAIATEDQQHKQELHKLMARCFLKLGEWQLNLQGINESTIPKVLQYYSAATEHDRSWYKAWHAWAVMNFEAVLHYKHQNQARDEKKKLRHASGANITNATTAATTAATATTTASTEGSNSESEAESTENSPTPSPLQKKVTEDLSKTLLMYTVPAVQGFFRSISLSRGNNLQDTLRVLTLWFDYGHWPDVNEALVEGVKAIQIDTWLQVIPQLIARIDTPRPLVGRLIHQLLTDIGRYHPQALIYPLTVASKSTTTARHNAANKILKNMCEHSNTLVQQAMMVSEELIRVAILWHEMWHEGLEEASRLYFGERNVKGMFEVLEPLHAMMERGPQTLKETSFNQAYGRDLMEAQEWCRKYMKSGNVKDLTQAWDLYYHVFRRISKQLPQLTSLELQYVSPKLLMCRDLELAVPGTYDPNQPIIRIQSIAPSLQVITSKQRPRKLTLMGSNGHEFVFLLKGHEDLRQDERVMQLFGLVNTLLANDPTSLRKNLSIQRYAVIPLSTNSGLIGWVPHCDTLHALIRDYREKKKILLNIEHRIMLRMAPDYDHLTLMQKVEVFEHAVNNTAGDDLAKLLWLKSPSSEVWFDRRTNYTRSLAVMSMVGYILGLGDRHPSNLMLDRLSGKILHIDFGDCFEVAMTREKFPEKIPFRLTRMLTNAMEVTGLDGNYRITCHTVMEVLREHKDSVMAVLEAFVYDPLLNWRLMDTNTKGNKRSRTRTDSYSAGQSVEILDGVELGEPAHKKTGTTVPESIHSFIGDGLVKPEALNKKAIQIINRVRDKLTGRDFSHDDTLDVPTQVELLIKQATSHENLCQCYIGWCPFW
Protocol: (b) In Vitro mTOR PI kinase-related Kinase Assay The assay used AlphaScreen technology (Gray et al., Analytical Biochemistry, 2003, 313: 234-245) to determine the ability of test compounds to inhibit phosphorylation by recombinant mTOR. […]
Each reaction was stopped by the addition of 10 μl of a mixture of EDTA (50 mM), bovine serum albumin (BSA; 0.5 mg/ml) and Tris-HCl pH7.4 buffer (50 mM) containing p70 S6 Kinase (T389) IA5 Monoclonal Antibody (Cell Signalling Technology, Catalogue No. 9206B) and AlphaScreen Streptavidin donor and Protein A acceptor beads (200 ng; Perkin Elmer, Catalogue No. 6760002B and 6760137R respectively) were added and the assay plates were left for about 20 hours at room temperature in the dark. The resultant signals arising from laser light excitation at 680 nm were read using a Packard Envision instrument.
Phosphorylated biotinylated peptide is formed in situ as a result of mTOR mediated phosphorylation. […] Upon laser light excitation at 680 nm, the donor bead: acceptor bead complex produces a signal that can be measured. […] In the presence of an mTOR kinase inhibitor, signal strength is reduced. mTOR enzyme inhibition for a given test compound was expressed as an IC50 value.

IC50 [1]: ~10 µM
IC50 [2]: ~5 µM
IC50 [3]: ~0.5 µM
Compound: CC(=O)Nc1ncc(-c2cc(NS(=O)(=O)c3ccccc3)cnc2C)s1 [Example 1, N-[5-(5-benzenesulphonamido-2-methylpyridin-3-yl)thiazol-2-yl]acetamide]
